Experimental data reported in patent US10857196B2, “Bicyclic peptide ligands and uses thereof” (BicycleTx Limited, priority 2017, dated 2020).
Numbered stars: 1 amine (or outer) side, 2 acyl side, 3 side chain; on linkers, the order of the positions; unused ones are H or OH. Bridge positions count the residues as written; N and C are the ends. Square brackets hold non-standard residues; d marks the D form. Ends that are not written are not given here. Peptide text beside a SMILES is read from it. X7 = O=S(=O)(CC[*:1])N1CCN(S(=O)(=O)CC[*:2])CCN(S(=O)(=O)CC[*:3])CC1; X6 = O=S(=O)(CC[*:1])c1cc(S(=O)(=O)CC[*:2])cc(S(=O)(=O)CC[*:3])c1; X4 = O=C(C[*:1])NCCN(CCNC(=O)C[*:2])CCNC(=O)C[*:3]; 1Nal = N[C@@H](Cc1cccc2ccccc12)C(=O)O; Tle = CC(C)(C)[C@H](N)C(=O)O; βAla = NCCC(=O)O; Sar = CNCC(=O)O

target: T1, CAIX (Homo sapiens, UniProt Q16790); assay: CAIX competition binding assay (competition fluorescence polarization); conditions: fluorescent ligand A-(CAECWIDGWVPC)-A-Sar6-K(Fl)
Protocol: CAIX Competition Binding Assay Affinity of the peptides of the invention for human CAIX (Ki) was determined using a competition fluorescence polarization assay analogous to that described in Dubois et al. (2011) Radiotherapy and Oncology 99(3), 424-43 using A-(CAECWIDGWVPC)-A-Sar6-K(Fl) (SEQ ID NO: 5) as the fluorescent ligand.
A Ki value designated “A” denotes a Ki of ≤50 nM; a Ki value designated “B” denotes a K, of >50 nM and ≤100 nM; a Ki value designated “C” denotes a Ki of >100 nM and ≤1,000 nM; and a Ki value designated “D” denotes a Ki of >1,000 nM.

Ki [nM] | Molecule
50 to 100 | CC(C)[C@@H]1NC(=O)[C@H](Cc2c[nH]c3ccccc23)NC(=O)[C@@H]2CSCC(=O)NCCn3c(=O)n(c(=O)n(c3=O)CCNC(=O)CSC[C@H](NC(=O)[C@H](C)NC(=O)CN(C)C(=O)CN(C)C(=O)CN(C)C(=O)CN(C)C(=O)CN(C)C(=O)CN(C)C(=O)CN(C)C(=O)CN(C)C(=O)CN(C)C(=O)CN(C)C(=O)CCN)C(=O)N[C@@H]([C@@H](C)O)C(=O)N[C@@H](CCC(=O)O)C(=O)N2)CCNC(=O)CSC[C@@H](C(=O)O)NC(=O)[C@@H]2CCCN2C(=O)[C@H](C(C)C)NC(=O)[C@H](Cc2c[nH]c3ccccc23)NC(=O)CNC(=O)[C@H](CC(=O)O)NC1=O [Compound I-19]
100 to 1000 | CC(C)[C@@H]1NC(=O)[C@H](Cc2c[nH]c3ccccc23)NC(=O)[C@@H]2CSCC(=O)N3CCN(CCN(CC3)C(=O)CSC[C@H](NC(=O)[C@H](C)NC(=O)CN(C)C(=O)CN(C)C(=O)CN(C)C(=O)CN(C)C(=O)CN(C)C(=O)CN(C)C(=O)CN(C)C(=O)CN(C)C(=O)CN(C)C(=O)CN(C)C(=O)CCN)C(=O)N[C@@H]([C@@H](C)O)C(=O)N[C@@H](CCC(=O)O)C(=O)N2)C(=O)CSC[C@@H](C(N)=O)NC(=O)[C@@H]2CCCN2C(=O)[C@H](C(C)C)NC(=O)[C@H](Cc2c[nH]c3ccccc23)NC(=O)CNC(=O)[C@H](CC(=O)O)NC1=O [Compound I-21]
100 to 1000 | CC(C)[C@@H]1NC(=O)[C@H](Cc2c[nH]c3ccccc23)NC(=O)[C@@H]2CSCCC(=O)N3CCN(CCN(CC3)C(=O)CCSC[C@H](NC(=O)[C@H](C)NC(=O)CN(C)C(=O)CN(C)C(=O)CN(C)C(=O)CN(C)C(=O)CN(C)C(=O)CN(C)C(=O)CN(C)C(=O)CN(C)C(=O)CN(C)C(=O)CN(C)C(=O)CCN)C(=O)N[C@@H]([C@@H](C)O)C(=O)N[C@@H](CCC(=O)O)C(=O)N2)C(=O)CCSC[C@@H](C(N)=O)NC(=O)[C@@H]2CCCN2C(=O)[C@H](C(C)C)NC(=O)[C@H](Cc2c[nH]c3ccccc23)NC(=O)CNC(=O)[C@H](CC(=O)O)NC1=O [Compound I-22]
> 1000 | CC(C)[C@@H]1NC(=O)[C@H](Cc2c[nH]c3ccccc23)NC(=O)[C@@H]2CSCC(=O)N3CC45CN(C[C@@]4(CN(C5)C(=O)CSC[C@H](NC(=O)[C@H](C)NC(=O)CN(C)C(=O)CN(C)C(=O)CN(C)C(=O)CN(C)C(=O)CN(C)C(=O)CN(C)C(=O)CN(C)C(=O)CN(C)C(=O)CN(C)C(=O)CN(C)C(=O)CCN)C(=O)N[C@@H]([C@@H](C)O)C(=O)N[C@@H](CCC(=O)O)C(=O)N2)C3)C(=O)CSC[C@@H](C(N)=O)NC(=O)[C@@H]2CCCN2C(=O)[C@H](C(C)C)NC(=O)[C@H](Cc2c[nH]c3ccccc23)NC(=O)CNC(=O)[C@H](CC(=O)O)NC1=O [Compound I-23]
> 1000 | CC(C)[C@@H]1NC(=O)[C@H](Cc2c[nH]c3ccccc23)NC(=O)[C@@H]2CSCCC(=O)N3CC45CN(CC4(CN(C5)C(=O)CCSC[C@H](NC(=O)[C@H](C)NC(=O)CN(C)C(=O)CN(C)C(=O)CN(C)C(=O)CN(C)C(=O)CN(C)C(=O)CN(C)C(=O)CN(C)C(=O)CN(C)C(=O)CN(C)C(=O)CN(C)C(=O)CCN)C(=O)N[C@@H]([C@@H](C)O)C(=O)N[C@@H](CCC(=O)O)C(=O)N2)C3)C(=O)CCSC[C@@H](C(=O)O)NC(=O)[C@@H]2CCCN2C(=O)[C@H](C(C)C)NC(=O)[C@H](Cc2c[nH]c3ccccc23)NC(=O)CNC(=O)[C@H](CC(=O)O)NC1=O [Compound I-24]
≤ 50 | CC(C)[C@@H]1NC(=O)[C@H](Cc2c[nH]c3ccccc23)NC(=O)[C@@H]2CSCC(=O)NCCN(CCNC(=O)CSC[C@@H](C(N)=O)NC(=O)[C@@H]3CCCN3C(=O)[C@H](C(C)C)NC(=O)[C@H](Cc3c[nH]c4ccccc34)NC(=O)CNC(=O)[C@H](CC(=O)O)NC1=O)CCNC(=O)CSC[C@H](NC(=O)[C@H](C)NC(=O)CN(C)C(=O)CN(C)C(=O)CN(C)C(=O)CN(C)C(=O)CN(C)C(=O)CN(C)C(=O)CN(C)C(=O)CN(C)C(=O)CN(C)C(=O)CN(C)C(=O)CCN)C(=O)N[C@@H]([C@@H](C)O)C(=O)N[C@@H](CCC(=O)O)C(=O)N2 [Compound I-63]

Molecule | Ki [nM]
CC(C)[C@@H]1NC(=O)[C@H](Cc2c[nH]c3ccccc23)NC(=O)[C@@H]2CSCC(=O)N3CCOCCN(CCOCCN(CCOCC3)C(=O)CSC[C@H](NC(=O)[C@H](C)NC(=O)CN(C)C(=O)CN(C)C(=O)CN(C)C(=O)CN(C)C(=O)CN(C)C(=O)CN(C)C(=O)CN(C)C(=O)CN(C)C(=O)CN(C)C(=O)CN(C)C(=O)CCN)C(=O)N[C@@H]([C@@H](C)O)C(=O)N[C@@H](CCC(=O)O)C(=O)N2)C(=O)CSC[C@@H](C(=O)O)NC(=O)[C@@H]2CCCN2C(=O)[C@H](C(C)C)NC(=O)[C@H](Cc2c[nH]c3ccccc23)NC(=O)CNC(=O)[C@H](CC(=O)O)NC1=O [Compound I-26] | 100 to 1000
CC(C)[C@@H]1NC(=O)[C@H](Cc2c[nH]c3ccccc23)NC(=O)[C@@H]2CSCCS(=O)(=O)N3CCN(CCN(CC3)S(=O)(=O)CCSC[C@H](NC(=O)[C@H](C)NC(=O)CN(C)C(=O)CN(C)C(=O)CN(C)C(=O)CN(C)C(=O)CN(C)C(=O)CN(C)C(=O)CN(C)C(=O)CN(C)C(=O)CN(C)C(=O)CN(C)C(=O)CCN)C(=O)N[C@@H]([C@@H](C)O)C(=O)N[C@@H](CCC(=O)O)C(=O)N2)S(=O)(=O)CCSC[C@@H](C(=O)O)NC(=O)[C@@H]2CCCN2C(=O)[C@H](C(C)C)NC(=O)[C@H](Cc2c[nH]c3ccccc23)NC(=O)CNC(=O)[C@H](CC(=O)O)NC1=O [Compound I-62] | 100 to 1000

target: T1, CAIX; assay: not given; conditions: bicyclic peptide formed with TBMB scaffold; CAIX binder; cited from earlier work

Molecule | Kd [nM]
βAla-Sar10-A-CTECWVDGWVPC [Compound 2] | 10

target: MT1-MMP hemopexin domain (Homo sapiens, UniProt P50281); assay: Direct binding fluorescence polarization (anisotropy) assay; conditions: not given
Protocol: Direct Binding Fluorescence Polarization or Anisotropy Assays are performed by titrating a constant concentration of fluorescent tracer (here, the fluoresceinated bicyclic peptide to be studied) with its binding partner (here, the MT1-MMP hemopexin domain). As the concentration of binding partner increases during the titration, the polarization signal changes in proportion to the fraction of bound and unbound material. This allows determination of […] (Kd) quantitatively. Assay data can be fit using standard ligand binding equations.
Typically, concentrations of the tracer are ideally well below the Kd of the tracer:titrant pair, and concentrations chosen are usually at ˜1 nM or less. The titrant (binding partner) concentration is varied from 0.1 nM up to typically 5 μM. The range is chosen such that the maximum change in fluorescent polarization can be observed. Buffers employed are phosphate buffered saline in the presence of 0.01% Tween. Experiments were run in black 384 well low-bind/low volume plates (Corning 3820), and the fluorescent polarization signal was measured using a BMG Pherastar FS plate reader. Fluorescent tracers referred to in the text are bicyclic peptides that have been fluoresceinated using 5,6-carboxyfluorescein. Fluoresceination may be performed on the N-terminal amino group of the peptide, which is separated from the bicycle core sequence by a sarcosine spacer (usually Sar5). This can be done during Fmoc solid phase synthesis or post-synthetically (after cyclization with the molecular scaffold reagent and purification) if the N-terminal amino group is unique to the peptide. Fluoresceination can also be performed on the C-terminus, usually on a Lysine introduced as the first C-terminal residue, which is then separated from the bicycle core sequence by a sarcosine spacer (usually Sar6). Thus, N-terminal tracers can have a molecular format described as Fluo-Gly-Sar5-A(BicycleCoreSequence), and (BicycleCoreSequence)-A-Sar6-K(Fluo) for a C-terminally fluoresceinated construct.
Fluorescent tracers used in the Examples are A-(17-69)-A-Sar6-K(Fluo), A-(17-69-07)-A-Sar6-K(Fluo), and A-(17-69-12)-A-Sar6-K(Fluo). Due to the acidic nature of the 17-69 fluorescent peptides, they were typically prepared as concentrated DMSO stocks, from which dilution were prepared in 100 mM Tris pH 8 buffer.
Results from the direct binding fluorescence polarization (anisotropy) assays is depicted in Table 3, below. A K, value designated “A” denotes a Ki of ≤50 nM; a Ki value designated “B” denotes a Ki of >50 nM and ≤100 nM; a Ki value designated “C” denotes a Ki of >100 nM and ≤1,000 nM; and a Ki value designated “D” denotes a Ki of >1,000 nM.

Ki [nM] | Molecule
100 to 1000 | C[C@H](N)C(=O)N[C@H]1CSCC(=O)NCCN2CCNC(=O)CSC[C@@H](C(=O)O)NC(=O)[C@H](C(C)(C)C)NC(=O)[C@H](CC(=O)O)NC(=O)[C@H](Cc3ccc(O)cc3)NC(=O)[C@H](Cc3ccccc3)NC(=O)[C@H](CC(=O)O)NC(=O)[C@H](CCC(=O)O)NC(=O)[C@H](CSCC(=O)NCC2)NC(=O)[C@@H](C)NC(=O)[C@H](Cc2cccc3ccccc23)NC(=O)[C@H](CCC(=O)O)NC(=O)[C@H](CC(N)=O)NC(=O)[C@@H](C)NC1=O [Compound I-60] (H-AC[dA]NE[1Nal][dA]CEDFYD[Tle]C-OH; linker 2-8-15 via X4)
≤ 50 | C[C@H](N)C(=O)N[C@H]1CSCCS(=O)(=O)c2cc3cc(c2)S(=O)(=O)CCSC[C@@H](NC(=O)[C@@H](C)NC(=O)[C@H](Cc2cccc4ccccc24)NC(=O)[C@H](CCC(=O)O)NC(=O)[C@H](CC(N)=O)NC(=O)[C@@H](C)NC1=O)C(=O)N[C@@H](CCC(=O)O)C(=O)N[C@@H](CC(=O)O)C(=O)N[C@@H](Cc1ccccc1)C(=O)N[C@@H](Cc1ccc(O)cc1)C(=O)N[C@@H](CC(=O)O)C(=O)N[C@@H](C(C)(C)C)C(=O)N[C@H](C(N)=O)CSCCS3(=O)=O [Compound I-61] (H-AC[dA]NE[1Nal][dA][dC]EDFYD[Tle]C-NH2; linker 2-8-15 via X6)

Molecule | Ki [nM]
C[C@H](N)C(=O)N[C@H]1CSCCS(=O)(=O)N2CCN3CCN(CC2)S(=O)(=O)CCSC[C@@H](NC(=O)[C@@H](C)NC(=O)[C@H](Cc2cccc4ccccc24)NC(=O)[C@H](CCC(=O)O)NC(=O)[C@H](CC(N)=O)NC(=O)[C@@H](C)NC1=O)C(=O)N[C@@H](CCC(=O)O)C(=O)N[C@@H](CC(=O)O)C(=O)N[C@@H](Cc1ccccc1)C(=O)N[C@@H](Cc1ccc(O)cc1)C(=O)N[C@@H](CC(=O)O)C(=O)N[C@@H](C(C)(C)C)C(=O)N[C@H](C(N)=O)CSCCS3(=O)=O [Compound I-59] (H-AC[dA]NE[1Nal][dA][dC]EDFYD[Tle]C-NH2; linker 2-8-15 via X7) | > 1000

target: MT1-MMP (Homo sapiens, UniProt P50281); assay: not given; conditions: bicyclic peptide formed with TBMB scaffold; MT1-MMP binder; cited from earlier work

Molecule | Kd [nM]
βAla-Sar10-A-C(D-Ala)NE(1Nal)(D-Ala)CEDFYD(tBuGLy)C ([βAla][Sar][Sar][Sar][Sar][Sar][Sar][Sar][Sar][Sar][Sar]AC[dA]NE[1Nal][dA]CEDFYD[Tle]C; cysteine pairing not given here) [17-69-07-N241] | 1.2
